{"source": "patent US12673052B2", "about": "“Combinations for the treatment of cancer” (Exelixis, Inc., priority 2020, dated 2026)", "key": {"[1]": {"test": "Liver microsomal stability assay", "type": "in vitro ADME, human", "conditions": "liver microsomes", "experimental": "(§1) In the liver microsomal stability assay, CLint was 0.601 mL/min/g liver in mouse, 0.563 mL/min/g liver in rat, 0.315 mL/min/g liver in dog, 0.734 mL/min/g liver in monkey, and 0.639 mL/min/g liver in human. In the hepatocyte stability assay, Compound 1 CLint was 0.373 mL/min/g liver in mouse, 0.285 mL/min/g liver in rat, 1.08 mL/min/g liver in dog, 0.533 mL/min/g liver in monkey, and 0.317 mL/min/g liver in human."}, "[2]": {"test": "Projection of human PK and steady-state exposure based on one species (rat)", "experimental": "The mean plasma t1/2, z values were approximately 9 hours in rats and 4 hours in dogs. Interspecies scaling based on body weight to predict PK parameters in humans could not be performed because dogs (larger species) cleared Compound 1 faster than rats (smaller species). Therefore, the human PK was projected based on one species (rat). […] This apparent clearance value (CL/F) was used to predict steady-state exposure (AUC and average plasma concentration [Cavg]) in humans for the proposed first-in-human (FIH) starting dose for Study Compound 1-001.\nThe steady-state exposure of Compound 1 in humans for the proposed clinical starting dose of 10 mg daily was projected. At this dose, Compound 1 is projected to yield exposures 54-fold lower than those at the highest non-severely toxic dose (HNSTD) in rats (10 mg/kg qd), the highest dose tested in the GLP 4-week toxicity study. […] Compound 1-related findings at the 10 mg/kg/day dose included bile duct inflammation, hyperplasia and individual hepatocyte necrosis (generally minimal-mild) which were fully reversible following 14 days recovery, as were correlative <2-fold aspartate aminotransferase (AST) and <5-fold alanine aminotransferase (ALT) increases."}, "[3]": {"test": "Liver microsomal stability assay", "type": "in vitro ADME, rat", "conditions": "liver microsomes", "experimental": "as §1"}, "advanced solid tumors": {"system": "advanced solid tumors", "test": "Phase 1 first-in-human Study Compound 1-001 (NCT03845166): safety (DLT, adverse events) and preliminary clinical activity", "type": "in vivo", "from_the_text": "The maximum tolerated dose (MTD) and/or recommended dose (RD) of Compound 1 single-agent therapy and ICI combination therapy will be determined in a Dose-Escalation Stage. The preliminary efficacy of Compound 1 as single agent and as ICI combination therapy will be determined in a Cohort-Expansion Stage with tumor-specific expansion cohorts. As of 14 Dec. 2020, dose escalation of Compound 1 as single agent and in combination therapy with atezolizumab was ongoing: 19 subjects were enrolled in single agent cohorts across six dose levels (PIB: 10, 20 mg; Tablet: 20, 40, 80, 140 mg); three subjects were enrolled in combination therapy with atezolizumab at one dose level (Compound 1 40 mg po qd plus atezolizumab 1200 mg IV q3w). As of 14 Dec. […] The majority of reported adverse events (AEs) were of low-grade severity (Grade 1-2) with five subjects having experienced treatment-related Grade 3 events.\nIn the Compound 1 single-agent dose-escalation cohorts, study drug will be administered qd for the first 28 days, which comprises the Dose-Limiting Toxicity (DLT) Evaluation Period. At the end of the 28-day DLT period, the Cohort Review Committee will review all available safety and PK data for cohorts containing at least 3 subjects and dose escalation to the next cohort may proceed if 0 out of 3 subjects or […] subjects experience(s) a DLT (as defined below). Dose escalation to the next cohort will not exceed a doubling of the Compound 1 dose; however, the Cohort Review Committee may decide to institute a less-than-doubling escalation between cohorts based on evaluation of safety and PK results from the current and previous cohorts.\nDose-limiting toxicity is defined as any of the following treatment-emergent AEs occurring during the DLT Evaluation Period for Compound 1 as single-agent therapy: • Any treatment-emergent AE that in the opinion of the Cohort Review Committee is of potential clinical significance such that further dose escalation of Compound 1 would expose subjects to unacceptable risk • Non-hematologic toxicity: treatment-emergent […] AEs • The following hematologic toxicities that are treatment-emergent: • Grade 3 thrombocytopenia with clinically significant bleeding • Grade 4 thrombocytopenia • Grade 4 neutropenia of 4 days duration • Grade 3 neutropenia of any duration with fever (single temperature of ≥38.3° C. [101.0° F.] or sustained temperature of ≥38.0° C. [100.4° F.] for ≥1 hour) or documented infection • Grade 4 anemia • Inability to take 75% of the total planned Compound 1 dose for the DLT Evaluation Period because of a treatment-emergent AE leading to a dose reduction and/or interruption • Any AE experienced during the DLT Evaluation Period that results in permanent discontinuation of Compound 1 For subjects receiving Compound 1 as combination therapy with atezolizumab or avelumab, the above in addition to the following are defined as DLTs: • Any related Grade 3 AE which is unexpected in severity and/or duration compared with the known safety profiles of Compound 1 and atezolizumab or avelumab when used as single agents, and that cannot be managed by dose modification (reduction or interruption) and adequate supportive care, and requires permanent discontinuation of Compound 1 and/or atezolizumab or avelumab. • Any AE experienced during the DLT Evaluation Period that results in permanent discontinuation of Compound 1 and/or atezolizumab or avelumab Note: AEs are presumed attributable to study drug. […]"}, "MER": {"biological_target": "MER (Homo sapiens, UniProt Q12866)", "sequence (Q12866 21-999)": "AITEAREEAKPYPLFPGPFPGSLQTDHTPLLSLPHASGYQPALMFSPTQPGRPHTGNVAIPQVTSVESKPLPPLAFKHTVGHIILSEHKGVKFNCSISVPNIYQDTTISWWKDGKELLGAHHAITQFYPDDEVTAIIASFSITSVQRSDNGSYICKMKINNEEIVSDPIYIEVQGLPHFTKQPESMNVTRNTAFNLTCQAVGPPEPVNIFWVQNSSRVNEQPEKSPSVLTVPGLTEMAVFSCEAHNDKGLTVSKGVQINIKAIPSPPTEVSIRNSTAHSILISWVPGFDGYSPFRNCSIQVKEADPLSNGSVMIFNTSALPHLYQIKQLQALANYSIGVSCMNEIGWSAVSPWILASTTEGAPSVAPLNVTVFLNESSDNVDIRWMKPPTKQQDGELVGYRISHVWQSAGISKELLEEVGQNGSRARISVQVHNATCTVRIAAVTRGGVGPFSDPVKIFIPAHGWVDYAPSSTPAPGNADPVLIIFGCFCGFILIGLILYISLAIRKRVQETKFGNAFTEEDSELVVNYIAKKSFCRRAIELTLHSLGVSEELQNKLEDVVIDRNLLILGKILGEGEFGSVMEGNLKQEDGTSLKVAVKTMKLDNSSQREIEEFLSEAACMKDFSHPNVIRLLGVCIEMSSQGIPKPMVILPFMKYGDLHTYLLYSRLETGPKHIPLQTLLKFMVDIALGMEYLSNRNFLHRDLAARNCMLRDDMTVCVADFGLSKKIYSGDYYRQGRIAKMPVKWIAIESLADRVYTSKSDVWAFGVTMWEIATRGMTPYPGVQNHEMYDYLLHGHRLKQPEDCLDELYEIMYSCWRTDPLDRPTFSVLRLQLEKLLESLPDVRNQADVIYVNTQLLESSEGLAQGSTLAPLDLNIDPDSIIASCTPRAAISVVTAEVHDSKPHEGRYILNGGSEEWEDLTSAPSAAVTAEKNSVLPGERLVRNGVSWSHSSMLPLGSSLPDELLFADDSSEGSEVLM", "test": "RTK autophosphorylation ELISA, 293A cells transfected with receptor expression vector", "type": "cell-based", "set-up": "expressed in transfected cells; host or cells: 293A", "conditions": "no ligand, read-out: Cellular IC50", "experimental": "The activity of Compound 1 was evaluated in cell-based assays that assessed the mechanistic effects of the compound in tumor and normal cells. Consistent with the biochemical data, Compound 1 is a potent inhibitor of cellular RTKs as assessed by analysis of receptor autophosphorylation as measured by enzyme-linked immunosorbent assay. Assays were performed using cell lines (PC-3, HUVEC, and A-172) stimulated with ligands to their respective receptors to induce autophosphorylation (MET, VEGFR2, and AXL) or a cell line (293A) transfected with an expression vector encoding the receptor of interest (MER). Inhibition of endogenous phosphorylated MET by Compound 1 in Hs 746T gastric carcinoma cells was also investigated due to the presence of the skip-splice mutation of exon 14 in the MET gene. This MET exon 14 alteration leads to increased MET stability and oncogenic activation, including constitutive MET phosphorylation. Also this mutation is known to occur in 3% of lung adenocarcinoma patients and to be sensitive to MET-targeted therapies (Frampton et al 2015)."}}}
{"smiles": "CNC(=O)c1cc2c(Oc3ccc(NC(=O)C4(C(=O)Nc5ccc(F)cc5)CC4)cc3)ccnc2cc1OC", "note": "[Compound 1, 1-N′-(4-Fluorophenvl)-1-N-[4-[7-methoxy-6-(methylcarbamovl)quinolin-4-yl]oxyphenyl]cyclopropane-1,1-dicarboxamide]", "values": [{"measurement": "CLint", "setting": "[1]", "result": 0.639, "unit": "mL/min/g liver"}, {"measurement": "projected apparent CL (CL/F) after oral administration in human", "setting": "[2]; assuming rat CL=23.4 mL/hr/kg and F=70%", "result": 0.557, "unit": "mL/min/kg"}, {"measurement": "projected apparent CL (CL/F) after oral administration in human", "setting": "[2]; for a 70-kg human", "result": 2338, "unit": "mL/h"}, {"measurement": "projected human exposure lower than exposure at HNSTD in rats", "setting": "[2]; proposed clinical starting dose of 10 mg daily vs 10 mg/kg qd in rats", "result": 54, "unit": "fold"}, {"measurement": "CLint", "setting": "[3]", "result": 0.563, "unit": "mL/min/g liver"}, {"measurement": "subjects with treatment-related Grade 3 events", "setting": "advanced solid tumors; as of 14 Dec. 2020", "result": "five subjects"}, {"measurement": "treatment-related Grade 4 or Grade 5 events", "setting": "advanced solid tumors; as of 14 Dec. 2020", "result": "no treatment-related Grade 4 or Grade 5 events"}, {"measurement": "tolerability", "setting": "advanced solid tumors; single agent and in combination with ICI therapy", "result": "well tolerated"}, {"measurement": "preliminary clinical activity", "setting": "advanced solid tumors; single agent therapy and atezolizumab combination therapy cohorts", "result": "prolonged disease stabilization and tumor regressions"}, {"measurement": "DLTs observed among completed dose levels", "setting": "advanced solid tumors; single agent, one subject at 140 mg po qd, Grade 3 uncontrolled hypertension", "result": "one DLT"}, {"measurement": "IC50", "setting": "MER", "result": 7.1, "unit": "nM"}]}
